# Assay results: paper PMC9698702, “Efficient Preparation of High-Purity Fucoxanthinol by SpyTag-Tailored Active Cholesterol Esterase Aggregates” (Marine Drugs, 2022)
# System: T1, free cholesterol esterase
# T1 construct: commercial Pseudomonas cholesterol esterase (Sigma-Aldrich), free
# Test: coupled cholesterol oxidase/peroxidase assay at […] nm, Lineweaver-Burk
# Format: biochemical
# Settings: free enzyme; taurocholate, pH 7.0, 37 °C; substrate of the kinetic run not named, taken from the activity assay
smiles,measurement,value
CCCCCCCC/C=C\CCCCCCCC(=O)O[C@H]1CC[C@@]2(C)C(=CC[C@H]3[C@@H]4CC[C@H]([C@H](C)CCCC(C)C)[C@@]4(C)CC[C@@H]32)C1 [cholesteryl oleate],Km,48.8 µM
